Reference: patent US4902677A, “Treatment of heart failure of mammals with N^6 -substituted cyclic adenosine monophosphates” (Kikkoman Corporation, priority 1987, dated 1990)
Where a name gives a salt, the structure may show the parent alone.

Experiments:
[1] = system: guinea pig papillary muscle; test: Contractive force of extirpated guinea pig papillary muscle preparation (Test Example 1); details: Cavia porcellus; 10^-3 M; relative to 10^-7 M Isoproterenol (positive control) as 100%; read-out: Increase in contractive force
Method: Test animal: guinea-pigs Method of Experiment: extirpated guinea pig papillary muscle preparation. Male albino guinea pigs having body weights of 300 to 500 g were stunned by a blow on the head. The hearts were quickly extirpated and the papillary muscles of the right ventricle were dissected out in cold bathing solution (2° to 4° C.), and were suspended in a 10 ml organ bath for recording isometric contractions. The bathing solution was the Krebs-Henseleit solution (32°±0.5° C.) and was continuously bubbled with a mixed gas composed of 95% O2 and 5% CO2. The papillary muscle preparation were stimulated by square wave pulses of 1 msec duration at the frequency of 1 Hz and at voltages of 20% above the threshold supplied by a square-wave pulse stimulator via a pair of the silver plate electrodes in which the preparations were placed. The isometric contraction was measured by a force-displacement transducer connected to a carrier-amplifier. The test solution was prepared by dissolving the sodium salt into distilled water or dissolving the free acid into Krebs-Henseleit solution. […] The results are shown as relative values (%), taking the result given by a reaction using 10^-7 M Isoproterenol (positive control) as 100%.

[2] = Acute toxicity, intraperitoneal (Test Example 3); details: mouse, in vivo, ip, female mice, in dimethyl sulfoxide, observed for 7 days
Method: Test animal: female ICR-CRJ: CD-1 mice, 5 weeks old, body weight 29 to 32 g
LD50 was calculated according to the Richfield-Wilcockson method (Pharmacological Tests, p 200-205, Nanzando, 1967).

[3] = system: heart-lung preparation; test: Cardiotonic activity on heart-lung preparation, acute heart failure induced by Pentobarbital (Test Example 2); design: species or system dog; details: for Change in Heart rate / Decrease in right atrium pressure / Increase in systemic output: versus nonadministration group
Method: Test animal: Crossbred adult dogs (female and male) Method of Experiment: cardiotonic activity on heart-lung preparation. Using female and male crossbred dogs having body weights of 9 to 10 kg anesthetized with Pentobarbital, heart-lung preparations were prepared in the usual way, on which systemic output, right atrium pressure and heart rate were measured. […] Regarding the control (no administration group), the results express the values after administration of Pentobarbital.

[4] = system: heart; details: literature; result in words; cited from earlier work

O=P1(O)OC[C@H]2O[C@@H](n3cnc4c(NCc5ccccc5)ncnc43)[C@H](O)[C@@H]2O1 [N^6 --Benzyl-C--AMP Na]
activation at 1000 µM [1]: 91.7% | LD50 at 168 h [2]: 383 mg/kg

CCCCNc1ncnc2c1ncn2[C@@H]1O[C@@H]2COP(=O)(O)O[C@H]2[C@H]1O [N^6 --Butyl-C--AMP]
activation at 1000 µM [1]: 71% | LD50 at 168 h [2]: 350 mg/kg

O=P1(O)OC[C@H]2O[C@@H](n3cnc4c(NCc5ccco5)ncnc43)[C@H](O)[C@@H]2O1 [N^6 --Furfuryl-C--AMP Na]
activation at 1000 µM [1]: 93.2% | LD50 at 168 h [2]: 483 mg/kg

CCCCCCCNc1ncnc2c1ncn2[C@@H]1O[C@@H]2COP(=O)(O)O[C@H]2[C@H]1O [N^6 --Heptyl-C--AMP, N^6-heptyladenosine-3',5'-cyclic phosphate]
activation at 1000 µM [1]: 94.1% | acute heart failure state induced by Pentobarbital ([3]; 10 mg or 30 mg, result in words): remarkably improved | LD50 at 168 h [2]: 174 mg/kg

CC(C)CNc1ncnc2c1ncn2[C@@H]1O[C@@H]2COP(=O)(O)O[C@H]2[C@H]1O [N^6 --Isobutyl-C--AMP]
activation at 1000 µM [1]: 24%

CCCCCCCCCNc1ncnc2c1ncn2[C@@H]1O[C@@H]2COP(=O)(O)O[C@H]2[C@H]1O [N^6 --Nonyl-C--AMP Na]
activation at 1000 µM [1]: 49.5% | LD50 at 168 h [2]: 150 mg/kg

CCCCCNc1ncnc2c1ncn2[C@@H]1O[C@@H]2COP(=O)(O)O[C@H]2[C@H]1O [N^6 --Pentyl-C--AMP]
activation at 1000 µM [1]: 98%

CCCC(=O)Nc1ncnc2c1ncn2[C@@H]1O[C@@H]2COP(=O)(O)O[C@H]2[C@H]1OC(=O)CCC [N^6,2'-O-dibutyryl C-AMP]
myocardial contractility [4]: have a mycocardial contractile effect

CCCCCCCNc1ncnc2c1ncn2[C@@H]1O[C@@H]2COP(=O)(O)O[C@H]2[C@H]1O [sodium salt of N^6-heptyl-adenosine-3',5'-cyclic phosphate]
Heart rate ([3]; 10 mg): 112 beats/min. | Right atrium pressure ([3]; 10 mg): 96.9 mm H2 O | Systemic output ([3]; 10 mg): 409 ml/min./100 g heart | Change in Heart rate ([3]; 10 mg): 2 beats/min. | Decrease in right atrium pressure ([3]; 10 mg): 12.1 mm H2 O | Increase in systemic output ([3]; 10 mg): 150 ml/min./100 g heart | Heart rate ([3]; 30 mg): 120 beats/min. | Right atrium pressure ([3]; 30 mg): 68.3 mm H2 O | Systemic output ([3]; 30 mg): 610 ml/min./100 g heart | Change in Heart rate ([3]; 30 mg): 10 beats/min. | Decrease in right atrium pressure ([3]; 30 mg): 40.7 mm H2 O | Increase in systemic output ([3]; 30 mg): 351 ml/min./100 g heart
